Four molecules from US11744876B2, “Immunomodulator antibody drug conjugates and uses thereof” (Sutro Biopharma, Inc., priority 2019, dated 2023) can be followed below.

Structures are written as SMILES. Like-named read-outs stand apart in the source and are kept apart here.

A word on the EC50: it is the concentration that produces a half-maximal response.

The test system of one experiment is Skov3 (Muc16−). The experiment can be described thus: In vitro cytotoxicity (Cell Titer-Glo, 120 hrs) on Skov3 cells. In kind it is cell-based. The following applies: Homo sapiens, SK-OV-3, Table 7, Experiment #2, read-out: Cell Killing on Skov3 (Muc16−) EC50. An excerpt:
(§1) FOLR1-positive KB or Igrov1 cells, FOLR1-negative A549 cells, Her2 positive SKBR3 cells and Her2 negative MDA-MB-468 cells, Muc16-positive OVCAR3 and Mucl6-negative Skov3 were maintained in Ham's F-12: high glucose DMEM (50:50) (Corning) supplemented with 10% heat-inactivated fetal bovine serum (Corning), 1% Penicillin/Streptomycin (Corning) and 2 mmol/L-glutamax (Thermo Fisher Scientific). Adherent cells were washed twice with PBS, harvested with Acutase and counted by the Vi-CELL cell viability analyzer. A total of 625 cells were seeded in each well of a 384-well flat bottom white polystyrene plate. ADC, ISAC, and iADC conjugates were formulated at 2-fold starting concentration in the cell culture medium and filtered through MultiScreenHTS 96-Well Filter Plates (Millipore; Billerica, Mass.). Serial dilutions of test samples (1:3 serial dilution starting from 100 nM) was added into treatment wells. Assay plates were cultured at 37° C. in a CO2 incubator for 120 hrs before assay. For cell viability measurement, 30 μL of Cell Titer-Glo® reagent (Promega Corp. Madison, Wis.) was added into each well, and plates were processed as per product instructions. Relative luminescence was measured on an ENVISION® plate reader (Perkin-Elmer; Waltham, Mass.). Relative luminescence readings were converted to percent viability using untreated cells as controls. […]

A further experiment concerns FolR1 + Igrov1 Cells. Description: In vitro cytotoxicity (Cell Titer-Glo, 120 hrs) on Igrov1 cells. The experiment is classed as cell-based.
From the text: as §1
For orientation: In ATP-based viability assays light output follows the ATP content of the culture.

Another experiment relates to MDA-MB-468 (Her2-). The experiment can be described thus: In vitro cytotoxicity (Cell Titer-Glo, 120 hrs) on MDA-MB-468 cells. The note with it: Homo sapiens, Table 6, Experiment #2, read-out: Cell Killing on MDA-MB-468 (Her2-) EC50. The experiment is classed as cell-based.
From the text: as §1

Another experiment concerns SKBR3 (Her2+). The experiment can be described thus: In vitro cytotoxicity (Cell Titer-Glo, 120 hrs) on SKBR3 cells. In kind it is cell-based. The note with it: Homo sapiens, SK-BR-3, Table 6, Experiment #2, read-out: Cell Killing on SKBR3 (Her2+) EC50.
From the text: as §1

Another experiment deals with monocytes in human PBMCs. Description: Monocyte activation (% CD86+ within CD14+) in isolated monocytes or PBMCs co-cultured with FolR1 positive KB cells. In kind it is cell-based. The note with it: 48 hr co-culture with FolR1 positive KB cells. The method, then: PBMCs were isolated from human blood donors by Leukosep tube and Nycoprep 1.077 buffer according to the manufacture's recommendation. CD14+ monocytes were isolated by immunomagnetic negative selection from fresh PBMCs (StemCell #19359—EasySep Human Monocyte Isolation Kit). PBMCs and monocytes were cultured in RPMI supplemented with 10% heat-inactivated fetal bovine serum from Hyclone, 1% Penicillin/Streptomycin and 2 mmol/L-glutamax before the assay. On the day of assay, 300,000 of PBMC or 30,000 of monocytes in 40 ul of culture medium were seeded in 96-well cell culture plates. 40 ul of the test articles (formulated at 3× of starting concentration, 1:10 serial dilution) and 40 ul of 10,000 Oregon green stained target cells were then added into the well. The cell mixtures were co-cultured in the presence of test articles and 10 ug/ml LPS-RS for 48 hr. […] Cells were washed, fixed with 2% PFA overnight, and read on the Attune NxT cytometer (Thermo Fisher). […]
PBMCs were isolated from human blood donors by Leukosep tube and Nycoprep 1.077 buffer according to the manufacture's recommendation. […] Cells were washed, fixed with 2% PFA overnight, and read on the Attune NxT cytometer (Thermo Fisher). […]

In the next experiment the test system is B cells. Description: Immune cell activation in PBMCs with KB cells: B cells (CD86 on CD14-/Lin+/HLA-DR+ cells). The experiment is classed as cell-based, human. The following applies: Example 29; PBMCs from two donors with KB cells, two days. The protocol: (§2) This example evaluates the ability of three homogeneous iADCs to stimulate the activation of different immune cell populations (monocyte, B cell, and DCs). Free TLR7 agonists, free hemiasterlin warhead, anti-FolRα-ADC, and the corresponding ISACs were used as controls in the experiment. PBMCs from two healthy donors were isolated using similar protocol as descripted in previous examples. PBMCs were treated with three homogeneous iADC and controls in the presence of FolR1 positive KB cells for two days. The immune cells were then stained with different cell population markers and activation markers. Monocyte activation was indicated as increase of CD86 expression on CD14+ cells. B cell activation was indicated as increase of CD86 expression on CD14-/Lin+/HLA-DR+ cells. Dendritic cells (DC) activation was indicated as increase of CD86 expression on CD14-/Lin-/HLA-DR+/CD123+ cells.

Another experiment concerns A549 (FolR1−). The experiment can be described thus: In vitro cytotoxicity (Cell Titer-Glo, 120 hrs) on A549 cells. The experiment is classed as cell-based. The following applies: Homo sapiens, Table 21, Example 28, homogeneous iADCs.
From the text: as §1

The subject of another experiment is monocytes. The experiment can be described thus: Immune cell activation in PBMCs with KB cells: monocytes (CD86 on CD14+ cells). In kind it is cell-based, human. The note with it: Example 29; PBMCs from two donors with KB cells, two days. The method, then:
as §2

Another experiment deals with Dendritic cells (DC). Description: Immune cell activation in PBMCs with KB cells: DCs (CD86 on CD14-/Lin-/HLA-DR+/CD123+ cells). In kind it is cell-based, human. The following applies: Example 29; PBMCs from two donors with KB cells, two days. The protocol: as §2
For another experiment, the system named is KB (FolR1+). The experiment can be described thus: In vitro cytotoxicity (Cell Titer-Glo, 120 hrs) on KB cells. The experiment is classed as cell-based. The following applies: Homo sapiens, Table 21, Example 28, homogeneous iADCs.
From the text: as §1

As for `CCCCc1nc2c(N)nc3ccccc3c2n1Cc1ccc(CN)cc1` [Compound 4], the EC50 is greater than 0.1 µM in the experiment with Skov3 (Muc16−); greater than 0.1 µM in the experiment on FolR1 + Igrov1 Cells (Homo sapiens, IGROV-1, 120 h, read-out: Cell Killing on FolR1 + Igrov1 Cells EC50); greater than 0.1 µM with MDA-MB-468 (Her2-); greater than 0.1 µM in the experiment with SKBR3 (Her2+).

With `CCCCc1nc2c(N)nc3ccccc3c2n1Cc1ccc(CNC(=O)OCc2ccc(NC(=O)[C@H](CCCNC(N)=O)NC(=O)[C@@H](NC(=O)CCOCCOCCOCCOCCNC(=O)CCC(=O)N3Cc4ccccc4C#Cc4ccccc43)C(C)C)cc2)cc1` [Compound 401], the “monocyte activation, in words” value in the experiment on monocytes in human PBMCs is on record as “activated monocyte”.

In the case of `CCCCc1nc2c(N)nc3ccccc3c2n1OCCCCN` [Compound 5], the EC50 with FolR1 + Igrov1 Cells (Experiment #1, 120 hrs, NK = no cell killing detected) is greater than 0.1 µM.

Consider `CCCCCNc1nc(N)nc2ccn(Cc3ccc(CN4CC5(CNCCO5)C4)cc3OC)c12` [Compound 7, 5-(4-((5-oxa-2,8-diazaspiro[3.5]nonan-2-yl)methyl)-2-methoxybenzyl)-N4-pentyl-5H-pyrrolo[3,2-d]pyrimidine-2,4-diamine], for which the “activation of B cells, in words” value with B cells is on record as “much more potent”. Besides, the EC50 in the experiment with A549 (FolR1−) and with KB (FolR1+) was greater than 0.1 µM each time. Moreover, the “activation of monocytes, in words” value in the experiment on monocytes is given as “much more potent”. For the same molecule, the “activation of DCs, in words” value in the experiment with Dendritic cells (DC) was “much more potent”.
